From US9783537B2, “3-(4-ethylnylphenyl) pyridopyrimidinone compounds and process for preparation thereof useful as potential anticancer agents” (Council of Scientific & Industrial Research, priority 2013, dated 2017)
Like-named read-outs stand apart in the source and are kept apart here.

Key:
HL-60(TB) = experiment: SRB 48 h growth assay, Leukemia HL-60(TB); type: cell-based, human
K-562 = experiment: SRB 48 h growth assay, Leukemia K-562; type: cell-based, human
RPMI-8226 = experiment: SRB 48 h growth assay, Leukemia RPMI-8226; type: cell-based, human; conditions: RPMI-8226, Leukemia
HOP-62 = experiment: SRB 48 h growth assay, Non-small Cell Lung HOP-62; type: cell-based, human; conditions: HOP-62, Non-small Cell Lung
HOP-92 = experiment: SRB 48 h growth assay, Non-small Cell Lung HOP-92; type: cell-based, human; conditions: Homo sapiens, HOP-92, Non-small Cell Lung
NCI-H322M = experiment: SRB 48 h growth assay, Non-small Cell Lung NCI-H322M; type: cell-based, human
COLO 205 = experiment: SRB 48 h growth assay, Colon COLO 205; type: cell-based, human; conditions: COLO 205, Colon
HCT-15 = experiment: SRB 48 h growth assay, Colon HCT-15; type: cell-based, human; conditions: HCT-15, Colon
KM12 = experiment: SRB 48 h growth assay, Colon KM12; type: cell-based, human
SW-620 = experiment: SRB 48 h growth assay, Colon SW-620; type: cell-based, human; conditions: SW-620, Colon
SF-268 = experiment: SRB 48 h growth assay, CNS SF-268; type: cell-based, human; conditions: SF-268, CNS
SF-539 = experiment: SRB 48 h growth assay, CNS SF-539; type: cell-based, human; conditions: SF-539, CNS
SNB-75 = experiment: SRB 48 h growth assay, CNS SNB-75; type: cell-based, human; conditions: SNB-75, CNS
SK-MEL-5 = experiment: SRB 48 h growth assay, Melanoma SK-MEL-5; type: cell-based, human; conditions: SK-MEL-5, Melanoma
UACC-62 = experiment: SRB 48 h growth assay, Melanoma UACC-62; type: cell-based, human; conditions: UACC-62, Melanoma
OVCAR-4 = experiment: SRB 48 h growth assay, Ovarian OVCAR-4; type: cell-based, human; conditions: OVCAR-4, Ovarian
OVCAR-5 = experiment: SRB 48 h growth assay, Ovarian OVCAR-5; type: cell-based, human; conditions: OVCAR-5, Ovarian
A498 = experiment: SRB 48 h growth assay, Renal A498; type: cell-based, human
RXF393 = experiment: SRB 48 h growth assay, Renal RXF393; type: cell-based, human
TK-10 = experiment: SRB 48 h growth assay, Renal TK-10; type: cell-based, human; conditions: TK-10, Renal
DU-145 = experiment: SRB 48 h growth assay, Prostate DU-145; type: cell-based, human; conditions: DU-145, Prostate
MCF7 = experiment: SRB 48 h growth assay, Breast MCF7; type: cell-based, human
MDA-MB-231/ATCC = experiment: SRB 48 h growth assay, Breast MDA-MB-231/ATCC; type: cell-based, human
T-47D = experiment: SRB 48 h growth assay, Breast T-47D; type: cell-based, human
[1] = system: seven colon cancer cell line (COLO 205, HCC-2998, HCT-116, HCT-15, HT29, KM12 and SW-620); experiment: in vitro anticancer activity, colon panel; type: cell-based; conditions: Homo sapiens; seven colon cancer cell lines, exposure at least 48 h; read-out: GI50, range over panel
[2] = in vitro anticancer activity, melanoma panel; type: cell-based; conditions: Homo sapiens; nine melanoma cell lines, exposure at least 48 h; read-out: GI50, range over panel
[3] = Homo sapiens, read-out: Growth Inhibition GI50
[4] = Homo sapiens, read-out: Log10 GI50 (converted)
[5] = Homo sapiens, read-out: Log10 LC50 (converted)

C#Cc1ccc(-n2c(/C=C/c3ccc(C(F)(F)F)cc3)nc3ncccc3c2=O)cc1 [4c, (E)-3-(4-Ethynylphenyl)-2-(4-(trifluoromethyl)styryl)pyrido[2,3-d]pyrimidin-4(3H)-one]
Log10 TGI50 (HL-60(TB)): −5.22
GI50 (HL-60(TB); [3]): 2070 nM
GI50 (HL-60(TB); [4]): 2090 nM
CC50 (HL-60(TB); [5]): > 100 µM
GI50 (K-562; Homo sapiens, K562, K-562, Leukemia, read-out: Growth Inhibition GI50): 2960 nM
GI50 (K-562; Homo sapiens, K562, K-562, Leukemia, read-out: Log10 GI50 (converted)): 2950 nM
CC50 (K-562; Homo sapiens, K562, K-562, Leukemia, read-out: Log10 LC50 (converted)): > 100 µM
Log10 TGI50 (K-562; K-562, Leukemia): −5.06
GI50 (RPMI-8226; [3]): 1390 nM
GI50 (RPMI-8226; [4]): 1380 nM
CC50 (RPMI-8226; [5]): > 100 µM
Log10 TGI50 (RPMI-8226): −5.20
Log10 TGI50 (HOP-62): −5.29
GI50 (HOP-62; [3]): 2430 nM
GI50 (HOP-62; [4]): 2450 nM
CC50 (HOP-62; [5]): > 100 µM
GI50 (HOP-92; read-out: Growth Inhibition GI50): 1320 nM
GI50 (HOP-92; read-out: Log10 GI50 (converted)): 1320 nM
CC50 (HOP-92; read-out: Log10 LC50 (converted)): 8.91 µM
Log10 TGI50 (NCI-H322M): −5.15
GI50 (NCI-H322M; [3]): 2250 nM
GI50 (NCI-H322M; [4]): 2240 nM
CC50 (NCI-H322M; [5]): 27.5 µM
Log10 TGI50 (COLO 205): −5.35
GI50 (COLO 205; [3]): 2230 nM
GI50 (COLO 205; [4]): 2240 nM
CC50 (COLO 205; [5]): 8.91 µM
Log10 TGI50 (HCT-15): −5.43
GI50 (HCT-15; [3]): 1740 nM
GI50 (HCT-15; [4]): 1740 nM
CC50 (HCT-15; [5]): 7.76 µM
Log10 TGI50 (KM12): −5.46
GI50 (KM12; [3]): 1790 nM
GI50 (KM12; [4]): 1780 nM
CC50 (KM12; [5]): 6.61 µM
GI50 (SW-620; [3]): 1920 nM
GI50 (SW-620; [4]): 1910 nM
CC50 (SW-620; [5]): 7.41 µM
Log10 TGI50 (SW-620): −5.42
GI50 (SF-268; [3]): 2270 nM
GI50 (SF-268; [4]): 2290 nM
CC50 (SF-268; [5]): 24.5 µM
Log10 TGI50 (SF-268): −5.23
GI50 (SF-539; [3]): 1680 nM
GI50 (SF-539; [4]): 1660 nM
CC50 (SF-539; [5]): 6.03 µM
Log10 TGI50 (SF-539): −5.50
GI50 (SNB-75; [3]): 1810 nM
GI50 (SNB-75; [4]): 1820 nM
CC50 (SNB-75; [5]): 28.2 µM
Log10 TGI50 (SNB-75): −5.14
GI50 (SK-MEL-5; [3]): 1490 nM
GI50 (SK-MEL-5; [4]): 1480 nM
CC50 (SK-MEL-5; [5]): 5.5 µM
Log10 TGI50 (SK-MEL-5): −5.54
GI50 (UACC-62; [3]): 1620 nM
GI50 (UACC-62; [4]): 1620 nM
CC50 (UACC-62; [5]): 7.94 µM
Log10 TGI50 (UACC-62): −5.44
GI50 (OVCAR-4; [3]): 1580 nM
GI50 (OVCAR-4; [4]): 479 nM
CC50 (OVCAR-4; [5]): 6.92 µM
Log10 TGI50 (OVCAR-4): −5.48
GI50 (OVCAR-5; [3]): 1940 nM
GI50 (OVCAR-5; [4]): 1950 nM
CC50 (OVCAR-5; [5]): 6.61 µM
Log10 TGI50 (OVCAR-5): −5.45
Log10 TGI50 (A498): −5.24
GI50 (A498; [3]): 2340 nM
GI50 (A498; [4]): 2400 nM
CC50 (A498; [5]): 24 µM
Log10 TGI50 (RXF393): −5.42
GI50 (RXF393; Homo sapiens, RXF 393, read-out: Growth Inhibition GI50): 1790 nM
GI50 (RXF393; Homo sapiens, RXF 393, read-out: Log10 GI50 (converted)): 1780 nM
CC50 (RXF393; Homo sapiens, RXF 393, read-out: Log10 LC50 (converted)): 7.94 µM
GI50 (TK-10; [3]): 2190 nM
GI50 (TK-10; [4]): 2190 nM
CC50 (TK-10; [5]): 6.31 µM
Log10 TGI50 (TK-10): −5.43
Log10 TGI50 (DU-145): −4.92
GI50 (DU-145; [3]): 3.76 µM
GI50 (DU-145; [4]): 3.72 µM
CC50 (DU-145; [5]): 38.9 µM
Log10 TGI50 (MCF7): −4.99
GI50 (MCF7; [3]): 2490 nM
GI50 (MCF7; [4]): 2510 nM
CC50 (MCF7; [5]): > 100 µM
Log10 TGI50 (MDA-MB-231/ATCC): −5.26
GI50 (MDA-MB-231/ATCC; [3]): 2050 nM
GI50 (MDA-MB-231/ATCC; [4]): 2040 nM
CC50 (MDA-MB-231/ATCC; [5]): 60.3 µM
Log10 TGI50 (T-47D): −5.30
GI50 (T-47D; Homo sapiens, T47D, read-out: Growth Inhibition GI50): 2020 nM
GI50 (T-47D; Homo sapiens, T47D, read-out: Log10 GI50 (converted)): 2000 nM
CC50 (T-47D; Homo sapiens, T47D, read-out: Log10 LC50 (converted)): 28.2 µM
GI50 [1]: 2060 to 3260 nM
GI50 [2]: 510 to 4970 nM
